The values that follow come from publication PMC5362036, “Cohesive Properties of the Caulobacter crescentus Holdfast Adhesin Are Regulated by a Novel c-di-GMP Effector Protein” (mBio, 2017).

Holding throughout (assay type): binding
For test [1], the target named is T1, HfsK (CC3689) (Caulobacter vibrioides, UniProt Q9A277, R102A).
T1 construct: gene CC_3689; full length; His-tagged (ITC) or StrepII-tagged (mutants, UV cross-linking), expressed in E. coli; tags kept as far as told
Put plainly: UV cross-linking with […]c-di-GMP. The following applies: StrepII-tagged, 1 uM protein; labelled compound.

Test [2] has as its target T2, HfsK (CC3689) (Caulobacter vibrioides, UniProt Q9A277, R151A).
T2 construct: gene CC_3689; full length; His-tagged (ITC) or StrepII-tagged (mutants, UV cross-linking), expressed in E. coli; tags kept as far as told
Put plainly: UV cross-linking with […]c-di-GMP. The following applies: StrepII-tagged, 1 uM protein; labelled compound.

The target in test [3] is T3, HfsK (CC3689) (Caulobacter vibrioides, UniProt Q9A277, R240A).
T3 construct: gene CC_3689; full length; His-tagged (ITC) or StrepII-tagged (mutants, UV cross-linking), expressed in E. coli; tags kept as far as told
The experiment in a line: UV cross-linking with […]c-di-GMP. The following applies: StrepII-tagged, 1 uM protein; labelled compound.

Test [4] deals with T4, HfsK (CC3689) (Caulobacter vibrioides, UniProt Q9A277, R112A).
T4 construct: gene CC_3689; full length; His-tagged (ITC) or StrepII-tagged (mutants, UV cross-linking), expressed in E. coli; tags kept as far as told
Put plainly: UV cross-linking with […]c-di-GMP. The following applies: StrepII-tagged, 1 uM protein; labelled compound.

Test [5] addresses T5, HfsK (CC3689) (Caulobacter vibrioides, UniProt Q9A277).
T5 construct: gene CC_3689; full length; His-tagged (ITC) or StrepII-tagged (mutants, UV cross-linking), expressed in E. coli; tags kept as far as told
The experiment in a line: isothermal titration calorimetry. The text has this: isothermal titration calorimetry on HfsK (CC3689) | His-CC3689 bound c-di-GMP in a concentration-dependent manner with an equilibrium disassociation constant (Kd)

Test [6] concerns the target T6, HfsK (CC3689) (Caulobacter vibrioides, UniProt Q9A277, R267A).
T6 construct: gene CC_3689; full length; His-tagged (ITC) or StrepII-tagged (mutants, UV cross-linking), expressed in E. coli; tags kept as far as told
Put plainly: UV cross-linking with […]c-di-GMP. The following applies: StrepII-tagged, 1 uM protein; labelled compound.

T2 sequence (Q9A277 entry or part of it R151A): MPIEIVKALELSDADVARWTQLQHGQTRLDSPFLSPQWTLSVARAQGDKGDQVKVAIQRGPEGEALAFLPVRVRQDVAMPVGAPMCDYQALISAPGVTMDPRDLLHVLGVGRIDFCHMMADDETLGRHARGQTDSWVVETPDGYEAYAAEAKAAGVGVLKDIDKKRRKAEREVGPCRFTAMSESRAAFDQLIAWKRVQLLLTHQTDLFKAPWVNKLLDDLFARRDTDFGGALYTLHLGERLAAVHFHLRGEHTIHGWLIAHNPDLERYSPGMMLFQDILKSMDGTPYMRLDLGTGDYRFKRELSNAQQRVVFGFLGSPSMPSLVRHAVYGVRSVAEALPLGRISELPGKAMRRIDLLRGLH
T5 sequence (Q9A277 entry or part of it): as the sequence (Q9A277 entry or part of it R151A) above, with A151R counted along it
T3 sequence (Q9A277 entry or part of it R240A): as the sequence (Q9A277 entry or part of it R151A) above, with A151R, R240A counted along it
T4 sequence (Q9A277 entry or part of it R112A): as the sequence (Q9A277 entry or part of it R151A) above, with R112A, A151R counted along it
T1 sequence (Q9A277 entry or part of it R102A): as the sequence (Q9A277 entry or part of it R151A) above, with R102A, A151R counted along it
T6 sequence (Q9A277 entry or part of it R267A): as the sequence (Q9A277 entry or part of it R151A) above, with A151R, R267A counted along it

For `Nc1nc2c(ncn2[C@@H]2O[C@@H]3COP(=O)(O)O[C@H]4[C@@H](O)[C@H](n5cnc6c(=O)[nH]c(N)nc65)O[C@@H]4COP(=O)(O)O[C@H]3[C@H]2O)c(=O)[nH]1` [c-di-GMP], the “UV cross-linking with [33P]c-di-GMP” value was “residues of HfsK (R102, R112, R151, R240, and R267) were replaced with alanine” in test [1]; “residues of HfsK (R102, R112, R151, R240, and R267) were replaced with alanine” in test [2]; “residues of HfsK (R102, R112, R151, R240, and R267) were replaced with alanine” in test [3]; “HfsKR112a as the only mutant variant with reduced binding affinity for c-di-GMP” in test [4]; “residues of HfsK (R102, R112, R151, R240, and R267) were replaced with alanine” in test [6]. In addition, binding in test [5] was put at a Kd of 724 nM.
